In patent EP4741389A1, “KAT6 INHIBITOR” (Shanghai Qilu Pharmaceutical Research and Development …, priority 2023, dated 2025):

Experiments:
KAT6B = molecular target: T1, KAT6B (Homo sapiens, UniProt Q8WYB5); assay: KATs acetyltransferase enzyme activity assay (TR-FRET), KAT6B; format: biochemical; settings: Biotin-H3 (1-21) and AcCOA, 90 minutes at room temperature
T1 construct: purchased Active Motif 81224
Procedure, shortened: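 TR-FRET assay in Tris-HCl buffer: enzyme preincubated with compound 15 min at room temperature, then biotin-H3(1-21) peptide and acetyl-CoA added for 90 min at room temperature. Acetylation detected with Eu-anti-acetyl-histone H4 lysine antibody and ULight-streptavidin (60 min), 665/620 nm ratio; IC50 from four-parameter logistic fit.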

ZR-75-1 cells = assay: ZR-75-1 cell proliferation assay (CellTiter-Glo); format: cell-based; settings: Homo sapiens, ZR-75-1, 240 h, total culture period of 10 days, read-out: ZR-75-1 Proliferation Inhibition IC50
Procedure, shortened: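 ZR-75-1 cells were exposed to compound for 10 days in total at 37°C and 5% CO2, being trypsinized, counted and re-seeded every 5 days, with fresh compound added after each re-seeding. Viability was read by CellTiter-Glo luminescence, and IC50 was derived from a four-parameter logistic fit.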

[1] = Body weight changes and tolerability in the ZR-75-1 xenograft study; format: in vivo, Mouse; settings: result in words; for body weight changes: differences among the groups, FIG. 1; for tolerability in tumor-bearing mice: human breast cancer ZR-75-1 model
Protocol: • Species: Mouse; • Strain: BALB/c nude mice; • Age and weight: 6-8 weeks old, weighing 19-26 grams; • Gender: Female; • Supplier: GemPharmatech Co., Ltd.; • Compound source: Compound A: [drawing 190] prepared with reference to patent CN114364672A.
A mixture containing 10×10^6 ZR-75-1 cells in 100 µL PBS and 100 µL Matrigel (final volume was 200 µL) was subcutaneously implanted into the right dorsal side (upper side) of each mouse. On day 18 after cell implantation, when the average tumor volume reached 138 mm^3, grouping and administration were initiated. Mice with tumor volumes ranging from 100 to 212 mm^3 were selected for the study. Mice were randomly assigned to groups based on body weight and tumor volume, with 7 mice per group. The day of grouping was designated as PG-D0, and administration for all groups started from PG-D0.
The effects of the test drugs Compound 2, Compound 5-P2, Compound 3, and Compound A on the body weight of the female BALB/c nude mouse model with subcutaneously implanted human breast cancer ZR-75-1 cell xenografts are shown in FIG. 1.

T1 sequence (Q8WYB5 whole entry): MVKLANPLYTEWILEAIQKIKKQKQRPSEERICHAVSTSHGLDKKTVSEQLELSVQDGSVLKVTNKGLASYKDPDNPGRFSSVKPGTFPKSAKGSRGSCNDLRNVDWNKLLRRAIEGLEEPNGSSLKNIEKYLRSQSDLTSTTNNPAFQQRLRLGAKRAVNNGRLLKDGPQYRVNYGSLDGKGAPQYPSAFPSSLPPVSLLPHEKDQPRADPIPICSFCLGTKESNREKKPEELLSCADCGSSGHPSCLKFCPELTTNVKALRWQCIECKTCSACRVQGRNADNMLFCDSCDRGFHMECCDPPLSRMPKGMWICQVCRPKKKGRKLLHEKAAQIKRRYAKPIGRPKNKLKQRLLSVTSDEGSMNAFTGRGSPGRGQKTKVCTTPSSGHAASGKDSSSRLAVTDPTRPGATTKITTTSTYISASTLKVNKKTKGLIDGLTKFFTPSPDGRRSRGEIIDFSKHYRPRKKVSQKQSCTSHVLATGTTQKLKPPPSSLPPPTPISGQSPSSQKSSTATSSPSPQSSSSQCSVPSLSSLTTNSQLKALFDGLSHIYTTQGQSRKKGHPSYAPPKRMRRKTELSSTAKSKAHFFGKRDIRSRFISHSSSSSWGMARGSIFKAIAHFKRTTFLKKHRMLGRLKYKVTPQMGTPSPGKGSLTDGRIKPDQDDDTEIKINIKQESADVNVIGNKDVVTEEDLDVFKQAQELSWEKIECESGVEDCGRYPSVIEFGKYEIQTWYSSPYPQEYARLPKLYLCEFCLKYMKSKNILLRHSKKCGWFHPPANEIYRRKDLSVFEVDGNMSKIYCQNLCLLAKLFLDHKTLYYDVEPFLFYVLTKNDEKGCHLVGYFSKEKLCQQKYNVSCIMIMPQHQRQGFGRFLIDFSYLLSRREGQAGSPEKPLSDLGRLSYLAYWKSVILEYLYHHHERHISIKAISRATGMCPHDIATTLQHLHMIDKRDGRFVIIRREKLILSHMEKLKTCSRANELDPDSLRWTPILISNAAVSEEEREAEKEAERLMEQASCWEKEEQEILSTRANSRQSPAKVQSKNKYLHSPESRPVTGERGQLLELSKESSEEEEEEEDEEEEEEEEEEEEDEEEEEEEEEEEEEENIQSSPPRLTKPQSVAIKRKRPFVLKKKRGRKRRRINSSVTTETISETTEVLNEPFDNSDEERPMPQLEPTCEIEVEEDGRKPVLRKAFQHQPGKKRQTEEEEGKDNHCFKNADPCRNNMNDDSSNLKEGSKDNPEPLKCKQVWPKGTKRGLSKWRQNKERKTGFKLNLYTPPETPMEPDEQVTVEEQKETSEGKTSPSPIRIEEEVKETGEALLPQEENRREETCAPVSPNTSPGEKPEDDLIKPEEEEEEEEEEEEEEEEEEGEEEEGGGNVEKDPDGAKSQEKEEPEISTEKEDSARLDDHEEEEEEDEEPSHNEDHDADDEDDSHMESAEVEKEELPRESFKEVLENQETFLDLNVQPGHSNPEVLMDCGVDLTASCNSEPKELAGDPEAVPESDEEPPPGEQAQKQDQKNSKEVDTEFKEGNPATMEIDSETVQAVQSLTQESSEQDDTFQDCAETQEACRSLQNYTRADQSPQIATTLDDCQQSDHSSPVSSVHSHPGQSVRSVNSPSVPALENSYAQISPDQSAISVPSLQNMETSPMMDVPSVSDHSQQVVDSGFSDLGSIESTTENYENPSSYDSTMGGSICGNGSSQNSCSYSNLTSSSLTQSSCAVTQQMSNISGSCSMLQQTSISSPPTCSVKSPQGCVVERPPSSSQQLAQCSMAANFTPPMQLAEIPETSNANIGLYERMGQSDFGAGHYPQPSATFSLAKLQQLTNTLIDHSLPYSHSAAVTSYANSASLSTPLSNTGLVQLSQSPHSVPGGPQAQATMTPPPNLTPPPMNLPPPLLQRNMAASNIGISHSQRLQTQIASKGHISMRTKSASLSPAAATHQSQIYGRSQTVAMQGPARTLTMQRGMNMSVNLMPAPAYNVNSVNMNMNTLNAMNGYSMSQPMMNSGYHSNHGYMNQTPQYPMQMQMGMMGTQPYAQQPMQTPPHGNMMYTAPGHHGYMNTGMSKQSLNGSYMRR

For COc1ccc2c(c1S(=O)(=O)Nc1noc3cc(Cn4cccn4)cc(OC)c13)OCCCO2 [Compound 2, N-(6-((1H-Pyrazol-1-yl)methyl)-4-methoxybenzo[d]isoxazol-3-yl)-7-methoxy-3,4-dihyd ro-2H-benzo[b][1,4]dioxepine-6-sulfonamide], the IC50 (KAT6B) was 25.2 nM, the IC50 (ZR-75-1 cells) was 3.2 nM and the body weight changes [1] was “not significant”. The “tolerability in tumor-bearing mice” value [1] was “tolerated”.

With COc1ccc2c(c1S(=O)(=O)Nc1noc3cc(Cn4cccn4)cc(OC)c13)OC[C@@H]1C[C@H]21 [Compound 5-P2, (1aR,7bS)-N-(6-((1H-Pyrazol-1-yl)methyl)-4-methoxybenzo[d]isoxazol-3-yl)-5-methoxy-1,1a,2,7b-tetrahydrocyclopropa[c]chromene-4-sulfonamide] the IC50 (KAT6B) was 1.6 nM, the IC50 (ZR-75-1 cells) was 0.1 nM and the body weight changes [1] was “not significant”. For the same compound, the “tolerability in tumor-bearing mice” value [1] was “tolerated”.
